According to ChEMBL document CHEMBL1268953, “Discovery of novel 2-aryl-4-benzoyl-imidazoles targeting the colchicines binding site in tubulin as potential anticancer agents” (J Med Chem, 2010):

Experiments:
[1] = system: A-375; experiment: Cytotoxicity against human A375 cells after 48 hrs by sulforhodamine B assay; type: functional, cell-based
[2] = Cytotoxicity against mouse B16-F1 cells after 48 hrs by sulforhodamine B assay; type: functional, cell-based
[3] = Cytotoxicity against human WM164 cells after 48 hrs by sulforhodamine B assay; type: functional, cell-based
[4] = system: LNCaP; experiment: Cytotoxicity against human LNCAP cells after 48 hrs by sulforhodamine B assay; type: functional, cell-based
[5] = system: PPC-1; experiment: Cytotoxicity against human PPC1 cells after 48 hrs by sulforhodamine B assay; type: functional, cell-based
[6] = system: PC-3; experiment: cells; conditions: Homo sapiens, PC-3, 48 h
Description: Cytotoxicity against human PC3 cells after 48 hrs by sulforhodamine B assay

[7] = system: DU-145; experiment: cells; conditions: Homo sapiens, DU-145, 48 h
Description: Cytotoxicity against human DU145 cells after 48 hrs by sulforhodamine B assay

Row | Structure (SMILES) | IC50 ([1]; Homo sapiens, A-375, 48 h) [nM] | IC50 ([2]; Mus musculus, B16-F1, 48 h) [nM] | IC50 ([3]; Homo sapiens, WM164, 48 h) [nM] | IC50 [4] [nM] | IC50 ([5]; Homo sapiens, PPC-1, 48 h) [nM] | IC50 [6] [nM] | IC50 [7] [nM] | IC50 ([1]; a-375) [nM] | IC50 ([2]; b16-f1) [nM] | IC50 ([3]; wm164) [nM] | IC50 ([5]; ppc-1) [nM]
1 | Cc1cccc(C(=O)c2c[nH]c(-c3ccccc3)n2)c1 | > 10000 | > 10000 | > 10000 | > 10000 | > 10000 | > 10000 | > 10000 |  |  |  | 
2 | COc1ccc(C(=O)c2cnc(-c3ccccc3)n2S(=O)(=O)c2ccccc2)cc1 | > 10000 | > 10000 | > 10000 | > 10000 | > 10000 | > 10000 | > 10000 |  |  |  | 
3 | COc1cc(C(=O)c2c[nH]c(-c3ccccc3)n2)cc(OC)c1OC | 160 | 120 | 100 | 150 | 130 | 290 | 200 |  |  |  | 
4 | COc1cc(C(=O)c2cnc(-c3ccccc3C(F)(F)F)n2S(=O)(=O)c2ccccc2)cc(OC)c1OC | > 10000 | > 10000 | > 10000 | > 10000 | > 10000 | > 10000 | > 10000 |  |  |  | 
5 | COc1cc(C(=O)c2c[nH]c(-c3ccc(O)cc3)n2)cc(OC)c1OC | 1600 | 2400 | 1800 |  |  |  |  |  |  |  | 
6 | Cc1ccc(-c2nc(C(=O)c3ccc(F)cc3)c[nH]2)cc1 |  |  |  |  |  |  |  | 108 | 297 | 112 | 
7 | O=C(c1ccc(F)cc1)c1c[nH]c(-c2ccc(O)cc2)n1 |  | > 10000 | > 10000 | 10000 | > 10000 | > 10000 | > 10000 |  |  |  | 
8 | Cc1ccc(-c2ncc(C(=O)c3ccc(F)cc3)n2S(=O)(=O)c2ccccc2)cc1 |  | 287 | 107 | 55 | 57 | 80 | 80 |  |  |  | 
9 | COc1ccc(-c2nc(C(=O)c3cc(OC)c(OC)c(OC)c3)c[nH]2)cc1OC |  | 1400 | 191 |  |  |  |  |  |  |  | 
10 | COc1cc(C(=O)c2c[nH]c(-c3ccc(C(F)(F)F)cc3)n2)cc(OC)c1OC | 163 | 468 |  | 134 | 110 | 127 | 174 |  |  |  | 
11 | COc1ccc(-c2nc(C(=O)c3ccc(F)cc3)c[nH]2)cc1OC |  | 4210 | 1400 | 2530 | 2170 | 10000 | 10000 |  |  |  | 
12 | O=C(c1ccc(F)cc1)c1c[nH]c(-c2ccccc2)n1 |  | 930 |  | 610 | 570 | 2100 | 850 |  |  |  | 
13 | COc1cc(C(=O)c2cnc(-c3ccc(N(C)C)cc3)n2S(=O)(=O)c2ccccc2)cc(OC)c1OC | 162 | 1200 | 308 | 62 |  | 93 | 99 |  |  |  | 
14 | COc1cc(C(=O)c2c[nH]c(-c3ccc(Cl)cc3)n2)cc(OC)c1OC | 43 | 168 |  | 24 | 26 | 35 | 36 |  |  |  | 
15 | CN(C)c1ccc(-c2nc(C(=O)c3ccc(F)cc3)c[nH]2)cc1 |  |  | 62 | 57 | 45 | 81 |  |  |  |  | 
16 | COc1ccc(-c2ncc(C(=O)c3cc(OC)c(OC)c(OC)c3)n2S(=O)(=O)c2ccccc2)cc1OC | 192 | 970 | 139 | 114 |  | 197 | 144 |  |  |  | 
17 | COc1cc(C(=O)c2c[nH]c(-c3ccc(C)cc3)n2)cc(OC)c1OC |  | 46 | 8 |  |  |  |  |  |  |  | 11
18 | COc1cc(C(=O)c2c[nH]c(-c3ccc(OCc4ccccc4)cc3)n2)cc(OC)c1OC | 5200 |  | 5500 | 2790 | 2840 | 10000 | 10000 |  |  |  | 
19 | COc1cc(OC)cc(C(=O)c2c[nH]c(-c3ccccc3)n2)c1 | 2800 | 5400 |  | 3600 | 2100 | 3200 | 2600 |  |  |  | 
20 | COc1ccc(-c2nc(C(=O)c3cc(OC)c(OC)c(OC)c3)c[nH]2)cc1 |  | 108 |  | 31 | 34 | 45 | 48 |  |  |  | 
